Measured values as given in patent US20080227824A1, “5-(Phenylisoxazolylethoxy) - Triazol- 3 -Yl Substituted Pyridine Compounds for the Treatment of Neurological, Psychiatric or Pain Disorders” (Astrazeneca AB, priority 2005, published 2008).

Key:
[1] = Intrinsic dissolution rate, low-volume rotating disc method; type: physicochemical; conditions: salt made at 1 g scale from ethanol; disc 0.07 cm^2, 500 rpm, 50 mL USP Phosphate buffer pH 6.8 at 37° C
Experimental: The salt manufactured at 1 g scale from ethanol was further investigated for its intrinsic dissolution rate and compared to the free base of 4-(5-{(1R)-1-[5-(3-chlorophenyl)isoxazol-3-yl]ethoxy}-4-methyl-4H-1,2,4-triazol-3-yl)pyridine. […] Dissolution rates of the base and salt were measured with a low-volume rotating disc method. Discs were compressed from pure compound and centrically mounted in a disc holder with an exposed area of 0.07 cm^2. The disc holder rotated at 500 rpm immersed in 50 mL USP Phosphate buffer pH 6.8 at 37° C. The compound was analysed UV-Online by a Spectrophotometer with a flow cell and a peristaltic pump with continuous circulation.

[2] = Moisture sorption / deliquescence of the salts at relative humidity; type: physicochemical

Row | intrinsic dissolution rate of the salt as compared to the free base [1] | relative humidity at which moisture sorption is increased ([2]; first batch from ethanol) | relative humidity at which the salt deliquesces ([2]; salt manufactured again from ethanol at 68° C) | relative humidity at which the salt deliquesces ([2]; salt recrystallised from the oiled salt in ethanol) | Structure (SMILES)
1 | 1000 times | 90-95 % RH |  |  | C[C@@H](Oc1nnc(-c2ccncc2)n1C)c1cc(-c2cccc(Cl)c2)on1.Cl [Example 17, 4-(5-{(1R)-1-[5-(3-chlorophenyl)isoxazol-3-yl]ethoxy}-4-methyl-4H-1,2,4-triazol-3-yl)pyridine hydrochloride]
2 |  |  | 70-80 % RH | 60-70 % relative humidity | C[C@@H](Oc1nnc(-c2ccncc2)n1C)c1cc(-c2cccc(Cl)c2)on1.O=S(=O)(O)O [Example 18, 4-(5-{(1R)-1-[5-(3-chlorophenyl)isoxazol-3-yl]ethoxy}-4-methyl-4H-1,2,4-triazol-3-yl)pyridine sulphate]
